The values that follow are results of earlier work, collected in patent US20100016828A1, “Drug Delivery System and Method” (priority 1995, published 2010).

The conditions of series [1]: cat brain.
The conditions of series [2]: intrathecal administration; at 1 hour.
For series [3], the system named is blood-brain barrier. To be noted: hyperosmolar saturated solution of 25% mannitol, intra-arterial infusion for approximately 30 seconds.

Consider hematoporphyrin derivative [HpD], for which the “HpD uptake relative to normal brain tissue” value (glioblastomas) is 30 times. The “HpD uptake relative to normal tissue” value (low-grade tumors) is reported as 8 times.

For the compound `OC[C@H]1O[C@@](CO)(O[C@H]2O[C@H](CO)[C@@H](O)[C@H](O)[C@H]2O)[C@@H](O)[C@@H]1O` [sucrose], the “distribution into gray matter” value in series [1] (after interstitial infusion) is reported as “extensively distributed into gray matter by two hours”. In addition, in series [1] (two hour infusions, immediately after completion of the infusion), the “spread in an anterior-posterior direction” value is listed as “≈ 2.0 cm”.

Take `CN(Cc1cnc2nc(N)nc(N)c2n1)c1ccc(C(=O)N[C@@H](CCC(=O)O)C(=O)O)cc1` [methotrexate]: the “depth of penetration into parenchymal tissue” value in series [2] was 3.2 mm.

Turning to `OC[C@@H](O)[C@@H](O)[C@H](O)[C@H](O)CO` [mannitol], the “period of nonselective entry of substances into the CNS and tumor after blood-brain barrier disruption” value in series [3] is given as “approximately 30 minutes”.
